Results published in patent EP1874311B1, “A METHOD FOR PREVENTING, DELAYING OR REVERTING ABNORMAL AMYLOID DEPOSITION” (Research & Innovation S.p.A., priority 2005, dated 2006).
Read-outs that look alike come from different tables or passages of the source. Marks after values point to notes of the source that are not given here.

Columns and labels:
H4/APP cells = assay: Secretion of total beta-amyloid into culture medium of H4/APP cells (ELISA); type: cell-based, Human; settings: for activity at 10 µM / activity at 30 µM: read-out: beta-amyloid concentration in culture medium; for beta-amyloid concentration in culture medium: h4/app cells, 120 min
Protocol: Human neuroglioma (H4) cells, stably transfected with the gene codifying for the human protein APP695 having mutations related to Alzheimer disease, have been used.
Cells were grown in OPTI-MEM containing 10% FBS (foetal bovine serum), hygromycin (0.2 mg/ml) and blasticidine (0.002 mg/ml).
The Aβ peptide in cells is produced by the sequential processing of beta- and gamma-secretases proteases and is then secreted in the culture medium.
Peptide concentration in the extracellular medium was measured using a specific ELISA methodology.
Confluent H4/APP cells where incubated for 2 h with the vehicle (0.1 % DMSO) or with nicardipine at different concentrations (3µM, 10µM, 30µM), beta-amyloid concentration in culture medium is expressed as % control

TG2576 mice = assay: Plasma amyloidogenic Aβ peptides in TG2576 mice after i.p. administration (ELISA); type: in vivo; settings: 3 hours after 10 mg/kg i.p.; for Aβ1-42 (%) / Total Aβ (%): before treatment = 100
Protocol: The selected dihydropyridine, nicardipine (see table 2) as well as nimodipine were administered, in TG2576 animals, at dose of 10 mg/Kg i.p. Animals were bleed before treatment for assessment of basal circulating Aβ peptides as well as 3 hours post-treatment. Determination of blood amyloidogenic Aβ peptide concentration was performed using ELISA technique.
Table 2 Levels of the amyloidogenic peptides in plasma of TG2576 mice before and 3 hours following administration of the exemplified dihydropyridines

[1] = Homo sapiens, 10µM, 2 h incubation, confluent H4/APP cells, vehicle = 100
[2] = Homo sapiens, 30µM, 2 h incubation, confluent H4/APP cells, vehicle = 100

Row | Compound | activity at 10 µM (H4/APP cells; [1]) [%] | activity at 30 µM (H4/APP cells; [2]) [%] | Aβ1-42 (%) (TG2576 mice) | Total Aβ (%) (TG2576 mice) | other results
1 | COC(=O)C1=C(C)NC(C)=C([N+](=O)[O-])C1c1ccccc1C(F)(F)F (stereo not shown) [BayK 8644] | 98 | 96 | – | – | beta-amyloid content in culture media from H4/APP cells (H4/APP cells; result in words): did not affect
2 | COC(=O)C1=C(C)NC(C)=C(C(=O)OCCCN2CCC(c3ccccc3)(c3ccccc3)CC2)C1c1cccc([N+](=O)[O-])c1 (single isomer, unassigned; (-)) [(-)Niguldipine, (-)niguldipine] | – | – | – | – | inhibition of the extracellular amount of Aβ peptides (H4/APP cells; 30 µM): 53%; beta-amyloid concentration in culture medium (H4/APP cells; 10 µM): 68* % control; beta-amyloid concentration in culture medium (H4/APP cells; 30 µM): 47* % control
3 | COCCOC(=O)C1=C(C)NC(C)=C(C(=O)OC(C)C)C1c1cccc([N+](=O)[O-])c1 (stereo not shown) [Nimodipine, nimodipine] | – | – | 156 | 87 | Total Aβ (pM) (TG2576 mice; n=7): 759,1±27,0 pM
4 | COC(=O)C1=C(C)NC(C)=C(C(=O)OCCCN2CCC(c3ccccc3)(c3ccccc3)CC2)C1c1cccc([N+](=O)[O-])c1 (single isomer, unassigned; (+)) [(+)Niguldipine, (+)niguldipine] | – | – | – | – | activity at 10 µM (H4/APP cells; Homo sapiens, 2 h): 71%; activity at 30 µM (H4/APP cells; Homo sapiens, 2 h): 43%; inhibition at 30 µM (H4/APP cells; Homo sapiens, read-out: inhibition of the extracellular amount of Aβ peptides): 57%
5 | COC(=O)C1=C(C)NC(C)=C(C(=O)OCCN(C)Cc2ccccc2)C1c1cccc([N+](=O)[O-])c1 (stereo not shown) [Nicardipine, nicardipine] | 62 | 58 | 176 | 170 | –
